Results published in publication PMC8778187, “A New Oxygen Containing Pyclen-Type Ligand as a Manganese(II) Binder for MRI and ^52Mn PET Applications: Equilibrium, Kinetic, Relaxometric, Structural and Radiochemical Studies” (Molecules, 2022).

How the values were obtained:
[1] = Stability and protonation constants of Ca(II) complexes by pH-potentiometry; type: physicochemical; conditions: Ca^2+ complex; T = 25 °C, I = 0.15 M NaCl
Procedure: (§1) The stability and protonation constants of the metal complexes formed with H2OPC2A were determined by pH-potentiometric titrations, but, for the Cu(II) complex, UV-Vis spectrophotometric measurements were also carried out to supplement the pH-potentiometric titration data (Figures S21 and S22, Supporting Information).
(§2) Metal stock solutions were prepared from the highest analytical grade chemicals, and their concentrations were determined by complexometric titration with standardized Na2H2EDTA and eriochrome black T indicator in the presence of ascorbic acid, and potassium hydrogen tartrate for MnCl2, murexide indicator for CaCl2 and CuCl2, eriochrome black T for MgCl2 and xylenol orange in the presence of hexamethylenetetramine for the solution of ZnCl2. The concentration of the ligand stock solution was determined by pH-potentiometric titrations. The protonation constants of the ligand were determined by the pH potentiometric titrations with 0.15 M NaOH, using 0.0025 M ligand solutions. The ionic strength was set to 0.15 M by using NaCl. […]
To avoid the effect of CO2, N2 gas was bubbled through the solutions during the titrations process. […] For the calibration of the pH meter, KH-phtalate (pH = 4.005) and borax (pH = 9.177) buffers were used, and the H^+ ion concentrations were calculated from the measured pH values by applying the method proposed by Irving et al.. […]

[2] = Stability and protonation constants of Cu(II) complexes by pH-potentiometry and UV-Vis spectrophotometry; type: physicochemical; conditions: Cu^2+ complex, T = 25 °C, I = 0.15 M NaCl
Procedure: as §1
as §2, with “NaCl. The titrated samples (starting volume of 6 mL) were stirred mechanically, and thermostated at 25 °C by a circulating water bath (±0.1 °C).” for “NaCl.”
To avoid the effect of CO2, N2 gas was bubbled through the solutions during the titrations process. […] For the calibration of the pH meter, KH-phtalate (pH = 4.005) and borax (pH = 9.177) buffers were used, and the H^+ ion concentrations were calculated from the measured pH values by applying the method proposed by Irving et al.. A solution of approximately 0.01 M HCl was titrated with a 0.15 M NaOH solution (0.15 or 1.00 M NaCl), and the differences between the measured and calculated pH values (for the points with pH < 2.4) were used to calculate the (H^+) from the pH values measured in the titration experiments. […] The stability constants of the metal complexes (except for Cu(II)) were determined using the direct pH-potentiometric method, by titrating samples with 1:1 metal-to-ligand ratios (the number of fitted data pairs were between 127–212), allowing 1 min for the sample equilibration to occur. […]

O=C(O)CN1CCOCCN(CC(=O)O)Cc2cccc(n2)C1 [H23,9-OPC2A, 6-Oxa-3,9,15-triazabicyclo(9.3.1)pentadeca-1(15),11,13-triene-3,9-diacetic acid]
log KMnL [1]: 8.27(1) | log KMnLOH [2]: 10.50(5) | log KMnHL ([2]; footnote g): 1.92(4) ^g | log KMnL ([2]; footnote g): 18.41(4) ^g
